Assay results as given in patent US9290511B2, “Thieno-pyrimidines, useful as potassium channel inhibitors” (XENTION LIMITED, priority 2011, dated 2016).

The compounds below were run against T1, Kir3.1/3.4 (Rattus norvegicus, UniProt P48548+P63251) (assay: Kir3.1/3.4 Electrophysiology Method (manual whole-cell patch clamp)). Settings: Electrophysiology Method (TABLE 1).
T1 construct: expressed in transfected cells
T1 sequence (P63251 1-501): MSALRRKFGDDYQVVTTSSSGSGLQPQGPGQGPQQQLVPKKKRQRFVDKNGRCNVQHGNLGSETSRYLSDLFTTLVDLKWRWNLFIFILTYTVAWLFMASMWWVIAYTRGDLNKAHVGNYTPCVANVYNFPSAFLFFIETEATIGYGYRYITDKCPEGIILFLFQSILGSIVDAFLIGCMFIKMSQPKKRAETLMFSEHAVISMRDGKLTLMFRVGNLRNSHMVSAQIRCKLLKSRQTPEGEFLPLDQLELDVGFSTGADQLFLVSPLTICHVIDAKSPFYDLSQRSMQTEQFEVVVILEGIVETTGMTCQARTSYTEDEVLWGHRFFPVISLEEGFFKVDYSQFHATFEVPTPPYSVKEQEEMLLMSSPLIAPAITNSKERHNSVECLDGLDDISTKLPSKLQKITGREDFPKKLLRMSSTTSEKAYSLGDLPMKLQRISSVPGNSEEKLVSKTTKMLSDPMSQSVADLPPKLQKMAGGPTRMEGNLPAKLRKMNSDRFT
T1 sequence (P48548 1-419): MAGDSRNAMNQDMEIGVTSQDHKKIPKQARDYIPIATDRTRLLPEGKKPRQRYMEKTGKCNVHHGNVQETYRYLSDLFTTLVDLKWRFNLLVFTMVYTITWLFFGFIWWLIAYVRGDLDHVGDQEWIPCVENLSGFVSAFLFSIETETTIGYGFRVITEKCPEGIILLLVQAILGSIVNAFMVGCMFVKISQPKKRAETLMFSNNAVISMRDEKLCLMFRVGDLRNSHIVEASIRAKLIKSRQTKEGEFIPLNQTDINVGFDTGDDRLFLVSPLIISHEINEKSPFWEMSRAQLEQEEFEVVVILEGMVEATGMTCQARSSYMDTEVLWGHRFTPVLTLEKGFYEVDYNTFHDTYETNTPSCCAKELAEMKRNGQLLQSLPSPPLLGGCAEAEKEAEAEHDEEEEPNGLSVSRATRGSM
Assay type: cell-based
In short: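 Percent inhibition is relative to the pre-drug current, both leak-subtracted using a potassium-free bather, taken as the mean current at −140 mV. The protocol was a step to +60 mV, a ramp to −140 mV, then a return to −60 mV holding, every 10 s. Cells were rat Kir3.1/3.4-transfected HEK293 recorded by whole-cell patch clamp.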
Work on `CN1CCC(N(C)CC2CCN(c3nc(N4CCC[C@@H]4C(N)=O)nc4scc(-c5ccccc5)c34)CC2)C1` (stereo partly drawn) [Example 229] yielded an IC50 of under 500 nM.

The compounds below were run against T1, Kir3.1/3.4 (assay: Kir3.1/3.4 Q-patch Method (automated patch clamp, Sophion Q-patch)). Settings: HEK293 cells stably-expressing Kir3.1/3.4; current at -120 mV; QPatch-16 or QPatch-48.
Assay type: cell-based
Procedure: For automated patch-clamp studies using the Sophion Q-patch, accumulative concentration-responses experiments were conducted to determine compound activity against the ion channel target. Voltage-clamp experiments were performed using HEK293 cells stably-expressing Kir3.1/3.4 using either a QPatch-16 or QPatch-48 (Sophion Bioscience A/S). A voltage waveform (VHold−20 mV, step to 60 mV for 100 ms, ramp to −120 mV over 500 ms, hold at −120 mV for 100 ms before returning to VHold) was repeatedly applied to the cells under voltage-clamp at a frequency of 0.1 Hz to elicit Kir3.1/3.4 currents. Mean current at −120 mV was measured in the absence (Icontrol) and presence of drug (IDrug). Assessment of passive leak was performed by removal of external potassium (IZero). Leak current was subtracted from control and drug recordings. Current inhibition (%) was calculated as {1−[(IDrug−IZero)/(IControl−IZero)]}*100. Data were fitted with a sigmoidal function to yield an IC50 and Hill coefficient. Composition of external experimental buffer was (in mM): 40 NaCl, 100 KCl, 5 CaCl2, 1 MgCl2, 10 HEPES pH 7.4. Composition of internal solution was (in mM). 40 K-gluconate, 60 KF, 20 NaCl, 5 Mg-ATP, 0.9 GTPgS, 20 EGTA, pH 7.2. Compounds were formulated in DMSO and diluted in buffer to give a final drug concentration of between […] and a final DMSO concentration of 0.1-0.3%.
`COc1ccccc1-c1csc2nc(N3CCCC(C(N)=O)C3)nc(N3C4CCC3COC4)c12` (stereo not drawn) [Example 399, 1-[5-(2-methoxyphenyl)-4-(3-oxa-8-azabicyclo[3.2.1]octan-8-yl)thieno[2,3-d]pyrimidin-2-yl]piperidine-3-carboxamide] showed an IC50 of 500 to 3000 nM. `COC1CC2CCC(C1)N2c1nc(N2CCCC(C(N)=O)C2)nc2scc(-c3ccccc3Cl)c12` (stereo not drawn) [Example 373, 1-[5-(2-chlorophenyl)-4-(3-methoxy-8-azabicyclo[3.2.1]octan-8-yl)thieno[2,3-d]pyrimidin-2-yl]piperidine-3-carboxamide] gave an IC50 of under 500 nM. Compound `NC(=O)C1CCN(c2nc(N3C4CCC3COC4)c3c(-c4ccccc4Cl)csc3n2)C1` (stereo not drawn) [Example 422, 1-[5-(2-chlorophenyl)-4-(3-oxa-8-azabicyclo[3.2.1]octan-8-yl)thieno[2,3-d]pyrimidin-2-yl]pyrrolidine-3-carboxamide] has an IC50 of 500 to 3000 nM. `NC(=O)C1CCCN(c2nc(N3C4CCC3CC(CO)C4)nc3scc(-c4ccccc4Cl)c23)C1` (stereo not drawn) [Example 393, 1-[5-(2-chlorophenyl)-2-[3-(hydroxymethyl)-8-azabicyclo[3.2.1]octan-8-yl]thieno[2,3-d]pyrimidin-4-yl]piperidine-3-carboxamide] gave an IC50 of under 500 nM. Work on `COc1ccccc1-c1csc2nc(N3C4CCC3CC(O)C4)nc(N3CCC(C(N)=O)C3)c12` (stereo not drawn) [Example 414, 1-[2-(3-hydroxy-8-azabicyclo[3.2.1]octan-8-yl)-5-(2-methoxyphenyl)thieno[2,3-d]pyrimidin-4-yl]pyrrolidine-3-carboxamide] yielded an IC50 of 500 to 3000 nM. In the case of `NC(=O)C1CCN(c2nc(N3C4CCC3CC(O)C4)nc3scc(-c4ccccc4Cl)c23)C1` (stereo not drawn) [Example 412, 1-[5-(2-chlorophenyl)-2-(3-hydroxy-8-azabicyclo[3.2.1]octan-8-yl)thieno[2,3-d]pyrimidin-4-yl]pyrrolidine-3-carboxamide], the IC50 is reported as 500 to 3000 nM. In the case of `COc1ccccc1-c1csc2nc(N3CCOC(C(N)=O)C3)nc(N3C4CCC3CC(OC)C4)c12` (stereo not drawn) [Example 409, 4-[4-(3-methoxy-8-azabicyclo[3.2.1]octan-8-yl)-5-(2-methoxyphenyl)thieno[2,3-d]pyrimidin-2-yl]morpholine-2-carboxamide], the IC50 is reported as 500 to 3000 nM. For `OC1CCN(c2nc(N3C4CCC3COC4)c3c(-c4ccccc4Cl)csc3n2)C1` (stereo not drawn) [Example 426, 1-[5-(2-chlorophenyl)-4-(3-oxa-8-azabicyclo[3.2.1]octan-8-yl)thieno[2,3-d]pyrimidin-2-yl]pyrrolidin-3-ol], the IC50 was under 500 nM. For `COc1ccccc1-c1csc2nc(N3C4CCC3CC(O)C4)nc(N3C4CCC3COC4)c12` (stereo not drawn) [Example 400, 8-[5-(2-methoxyphenyl)-4-(3-oxa-8-azabicyclo[3.2.1]octan-8-yl)thieno[2,3-d]pyrimidin-2-yl]-8-azabicyclo[3.2.1]octan-3-ol], the IC50 was 500 to 3000 nM. `NC(=O)C1CN(c2nc(N3C4CCC3COC4)c3c(-c4ccccc4Cl)csc3n2)CCN1` (stereo not drawn) [Example 416, 4-[5-(2-chlorophenyl)-4-(3-oxa-8-azabicyclo[3.2.1]octan-8-yl)thieno[2,3-d]pyrimidin-2-yl]piperazine-2-carboxamide] showed an IC50 of under 500 nM. `COc1ccccc1-c1csc2nc(N3CCNC(C(N)=O)C3)nc(N3C4CCC3COC4)c12` (stereo not drawn) [Example 398, 4-[5-(2-methoxyphenyl)-4-(3-oxa-8-azabicyclo[3.2.1]octan-8-yl)thieno[2,3-d]pyrimidin-2-yl]piperazine-2-carboxamide] was tested, and the IC50 was under 500 nM. Work on `NC(=O)C1CCCN(c2nc(N3C4CCC3COC4)c3c(-c4ccccc4Cl)csc3n2)C1` (stereo not drawn) [Example 410, 1-[5-(2-chlorophenyl)-4-(3-oxa-8-azabicyclo[3.2.1]octan-8-yl)thieno[2,3-d]pyrimidin-2-yl]piperidine-3-carboxamide] yielded an IC50 of 500 to 3000 nM. Compound `COC1CC2CCC(C1)N2c1nc(N2CCCC(C(N)=O)C2)c2c(-c3ccccc3Cl)csc2n1` (stereo not drawn) [Example 374, 1-[5-(2-chlorophenyl)-2-(3-methoxy-8-azabicyclo[3.2.1]octan-8-yl)thieno[2,3-d]pyrimidin-4-yl]piperidine-3-carboxamide] has an IC50 of under 500 nM. `COc1ccccc1-c1csc2nc(N3CCCC(C(N)=O)C3)nc(N3C4CCC3CC(OC)C4)c12` (stereo not drawn) [Example 390, 1-[4-(3-methoxy-8-azabicyclo[3.2.1]octan-8-yl)-5-(2-methoxyphenyl)thieno[2,3-d]pyrimidin-2-yl]piperidine-3-carboxamide] showed an IC50 of 500 to 3000 nM. `COCC1CC2CCC(C1)N2c1nc(N2CCNC(=O)C2)nc2scc(-c3ccccc3OC)c12` (stereo not drawn) [Example 378, 4-[4-[3-(methoxymethyl)-8-azabicyclo[3.2.1]octan-8-yl]-5-(2-methoxyphenyl)thieno[2,3-d]pyrimidin-2-yl]piperazin-2-one] was tested, and the IC50 was 500 to 3000 nM. For `NC(=O)C1CN(c2nc(N3C4CCC3COC4)nc3scc(-c4ccccc4Cl)c23)CCN1` (stereo not drawn) [Example 417, 4-[5-(2-chlorophenyl)-2-(3-oxa-8-azabicyclo[3.2.1]octan-8-yl)thieno[2,3-d]pyrimidin-4-yl]piperazine-2-carboxamide], the IC50 was 500 to 3000 nM. Compound `COC1CC2CCC(C1)N2c1nc(N2CCNC(=O)C2)nc2scc(-c3ccccc3Cl)c12` (stereo not drawn) [Example 391, 4-[5-(2-chlorophenyl)-4-(3-methoxy-8-azabicyclo[3.2.1]octan-8-yl)thieno[2,3-d]pyrimidin-2-yl]piperazin-2-one] has an IC50 of 500 to 3000 nM. `OC1CC2CCC(C1)N2c1nc(N2C3CCC2COC3)c2c(-c3ccccc3Cl)csc2n1` (stereo not drawn) [Example 421, 8-[5-(2-chlorophenyl)-4-(3-oxa-8-azabicyclo[3.2.1]octan-8-yl)thieno[2,3-d]pyrimidin-2-yl]-8-azabicyclo[3.2.1]octan-3-ol] showed an IC50 of under 500 nM. For `COCC1CC2CCC(C1)N2c1nc(N2CCC(C(N)=O)C2)nc2scc(-c3ccccc3OC)c12` (stereo not drawn) [Example 376, 1-[4-[3-(methoxymethyl)-8-azabicyclo[3.2.1]octan-8-yl]-5-(2-methoxyphenyl)thieno[2,3-d]pyrimidin-2-yl]pyrrolidine-3-carboxamide], the IC50 was 500 to 3000 nM. `COc1ccccc1-c1csc2nc(N3C4CCC3CC(CO)C4)nc(N3C4CCC3CC(OC)C4)c12` (stereo not drawn) [Example 371, [8-[4-(3-methoxy-8-azabicyclo[3.2.1]octan-8-yl)-5-(2-methoxyphenyl)thieno[2,3-d]pyrimidin-2-yl]-8-azabicyclo[3.2.1]octan-3-yl]methanol] was tested, and the IC50 was 500 to 3000 nM. In the case of `COc1ncccc1-c1csc2ncnc(N3C4CCC3CC(CNC3CCC3)C4)c12` (stereo not drawn) [Example 427, N-[[8-[5-(2-methoxy-3-pyridyl)thieno[2,3-d]pyrimidin-4-yl]-8-azabicyclo[3.2.1]octan-3-yl]methyl]cyclobutanamine], the IC50 is reported as under 500 nM. `COC1CC2CCC(C1)N2c1nc(N2CCNC(C(N)=O)C2)nc2scc(-c3ccccc3Cl)c12` (stereo not drawn) [Example 392, 4-[5-(2-chlorophenyl)-4-(3-methoxy-8-azabicyclo[3.2.1]octan-8-yl)thieno[2,3-d]pyrimidin-2-yl]piperazine-2-carboxamide] gave an IC50 of under 500 nM. Work on `Clc1ccccc1-c1csc2nc(N3CCOCC3)nc(N3C4CCC3COC4)c12` [Example 425, 8-[5-(2-chlorophenyl)-2-morpholino-thieno[2,3-d]pyrimidin-4-yl]-3-oxa-8-azabicyclo[3.2.1]octane] yielded an IC50 of under 500 nM.
